# Experiments:
# Format in all cases: cell-based
# [1] = tested on: Mouse malignant melanoma highly metastatic strain cell; assay: Cell protective effect: cell survival during preservation under refrigeration (trypan blue excretion test); settings: inhibitor b 0.25 mg/mL; 5% glucose solution; refrigerator 4° C.
# Procedure: Using a 5% glucose solution as a conditioning solution, nafamostat mesilate (Fusan for Injection, available from Nichi-Iko Corporation), which is a proteolytic enzyme inhibitor, was added to the conditioning solution in the concentrations shown in Table 8 (in Fusan for Injection (available from Nichi-Iko Corporation), use of a 5% glucose solution as a dilution solution is specified) to prepare cell preservation solutions. To each cell preservation solution, cells of mouse malignant melanoma high metastatic strain were added at a concentration of 10^6 cells/ml and left in a refrigerator set at 4° C. for 48 hours, and then the average survival rate (%) of cells was determined in the same manner as in Experimental Example of (1-4-1-1). The results are of N=4.
# [2] = tested on: rat corneal epithelial cells; assay: Cell detaching and suspending effect (Experimental Example 4); settings: dextran aqueous solution (MW 35000-50000), concentrations shown in Table 13; observed over time
# Procedure: A culture solution in which FBS was added to a normal serum-free cell culture solution in a concentration of 10% (10% FBS cell culture solution) was prepared in a culture dish. To this, rat corneal epithelial cells were added at 10^6 cells/ml and cultured for 24 hours under normal cell culture conditions (37° C., CO2 concentration of 5%, humidity of 100%) to make the cultured cells fully adhere to the culture dish wall which is a scaffold.
# The culture solution in the culture dish on which cultured cells obtained as described above had adhered was replaced with each of dextran sulfate aqueous solutions and a dextran aqueous solution, which are respectively obtained by dissolving dextran sulfate (Dextran sodium sulfate MW 36000-50000, available from FUJIFILM Wako Pure Chemical Corporation) and dextran (Dextran MW 35000-50000, available from FUJIFILM Wako Pure Chemical Corporation) in purified water and have concentrations shown in Table 13, and the resultant culture solutions were continuously cultured under normal cell culture conditions (37° C., CO2 concentration of 5%, humidity of 100%). For each adherent cell, detachment and suspension of adherent cells from the dish wall was observed over time. For determination of detachment and suspension, the culture dish was gently shaken manually to observe whether the cells were detached from the dish wall and suspended, and the case where 90% or more of the cells were detached and suspended was determined as detachment and suspension of adherent cells. The results are of N=4. In Table 13, “∘” means that the cells were detached and suspended, and “x” means that the cells were not detached and suspended.
# [3] = tested on: Chinese hamster fibroblast; assay: Cell protective effect: cell survival during preservation (trypan blue excretion test); settings: for Average survival rate at 24 hours / Average survival rate at 72 hours: Ringer's solution; for Average survival rate at 24 hours: normal temperature (22° C.); for Average survival rate at 72 hours: refrigerator 4° C.
# Procedure: (§1) Using a normal serum-free cell culture solution without FBS or a Ringer's solution (Otsuka Pharmaceutical Co., Ltd., Lactec Injection, Japanese Pharmacopoeia, Sodium L-lactate Ringer's solution) as a conditioning solution for use, for example, in preservation and transportation of cells, sodium alginate (Na alginate) (Fuji Chemical Industry Co., Ltd. Snow Algin SSL, viscosity of 1% aqueous solution is 30 mPa·s at 20° C.) was added to the conditioning solution in the concentrations shown in Table 1 to prepare cell preservation solutions. To each cell preservation solution, the above-described cells were added at a concentration of 10^6 cells/ml to satisfy the conditions shown in Table 1, and the resultant solution was left to stand in a room at normal temperature (22° C.) for 24 hours, and then whether cells were alive or dead was determined, and rates of viable cells (average survival rate (%)) were calculated and compared. Cell viability was determined by the trypan blue excretion test that is the ordinary method of confirming cell viability. The excretion test was performed according to the method described in “Denizot F., et al., Rapid colorimetric assay for cell growth and survival. Modifications to the tetrazolium dye procedure giving improved sensitivity and reliability. J. Immunol. Methods, 89, 271-277 (1986)”. The results are of N=4.
# (§2) The average survival rate (%) was determined in the same manner as in Experimental Example (1-1-1) except that the preservation conditions were changed to leaving still for 72 hours in a refrigerator at a set temperature of 4° C. The results are of N=4.
# [4] = tested on: Rat corneal epithelial cell; assay: as above; settings: for Average survival rate at 24 hours / Average survival rate after preservation for 24 hours: normal temperature (22° C.); for Average survival rate at 72 hours / Average survival rate after preservation for 7 days: refrigerator 4° C.
# Procedure: as §1, §2
# The average survival rate (%) of cells was determined in the same manner as in Experimental Example (1-1-1) except that dextran sulfate (dextran sulfate special grade reagent available from NACALAI TESQUE, INC.) was used instead of sodium alginate and the conditions were as shown in Table 3. The results are of N=4.
# The average survival rate (%) of cells was determined in the same manner as in Experimental Example (1-2-1) except that the preservation conditions were changed to leaving still for 72 hours in a refrigerator at a set temperature of 4° C. and to conditions shown in Table 4. The results are of N=3 in the case of using a serum-free cell culture solution, and are of N=4 in the case of using a Ringer's solution.
# The average survival rate (%) of cells was determined in the same manner as in Experimental Example (1-1-1) except that heparin sodium (Heparin Na Mochida, unfractionated heparin, available from Mochida Pharmaceutical Co., Ltd.) was used instead of alginic acid and the conditions were as shown in Table 5. The results are of N=4.
# The average survival rate (%) of cells was determined in the same manner as in Experimental Example (1-3-1) except that the preservation conditions were changed to leaving still for 72 hours in a refrigerator at a set temperature of 4° C. and to conditions shown in Table 6. The results are of N=4.
# The average survival rate (%) of cells was determined in the same manner as in Experimental Example (1-3-2) except that urinastatin (Miraclid injection solution, containing 2.5 million units, available from Mochida Pharmaceutical Co., Ltd.) was used as a proteolytic enzyme inhibitor instead of heparin sodium and the conditions were as shown in Table 7. The results are of N=4. “Unit (U)” in the unit of concentration (units/mL) of inhibitor a in Table 7 can be measured, for example, by the quantitative method of urinastatin in the Japanese Pharmacopoeia 15th revision. Specifically, absorbance at 405 nm of a sample solution is measured with a UV 240 spectrophotometer, and concentration of urinastatin can be calculated from a calibration curve prepared in advance. […]
# [5] = tested on: Rat corneal epithelial cell; assay: Cell dormancy effect: cell cycle analysis by flow cytometry; settings: Na alginate 2.5 mg/mL (Wako first grade, 120 mPa·s); serum-free cell culture solution; cultured 48 hours at 37° C.
# Procedure: Sodium alginate (sodium alginate first grade reagent, available from FUJIFILM Wako Pure Chemical Corporation, viscosity of 1% aqueous solution is 120 mPa·s at 20° C.), DS (the same as in Experimental Example 1), or sodium heparin (the same as in Experimental Example 1) was used as an active ingredient in the cell treatment agent, and whether cell dormancy occurs or not by action of the active ingredient was examined by comparing the activities of cell division and proliferation which are the most general cell activities in the following manner.
# The cell cycle was analyzed by flow cytometry according to the method described in known literature (Piotr Pozarowski and Zbigniew Darzynkiewicz, “Analysis of Cell Cycle by Flow Cytometry,” Methods in Molecular Biology, vol. 281: Checkpoint Controls and Cancer, Volume 2), and frequency of cell division and proliferation was compared between different active ingredients of the cell treatment agent. A specific method is as follows. Using a normal serum-free cell culture solution as a conditioning solution (comparison reference (a)), (b) a cell preservation solution in which sodium alginate (Na alginate) is added to the conditioning solution in a concentration of 2.5 mg/ml, (c) a cell preservation solution in which DS is added to the conditioning solution in a concentration of 0.1 mg/ml, and (d) a cell preservation solution in which heparin sodium (heparin Na) is added to the conditioning solution in a concentration of 50 units/ml, were prepared. To these cell preservation solutions, rat corneal epithelial cells were added at a cell concentration of 10^5 cells/ml and cultured for 48 hours under normal cell culture conditions (37° C., CO2 concentration of 5%, humidity of 100%). The number of cells in each culture was determined by cell cycle analysis using flow cytometry to determine the number of cells in each cell cycle, and the percentage of cells in the S phase, G2 phase, and M phase, which are considered as the periods of the cell division and proliferation process, was compared with the percentage of cells in the G0 phase and G1 phase, which are considered as other periods. The results are of N=4.
# [6] = Na alginate 0.63 mg/mL, Ringer's solution
# [7] = Na alginate 0.63 mg/mL, serum-free cell culture solution
# [8] = Na alginate 2.5 mg/mL, Ringer's solution
# [9] = Na alginate 2.5 mg/mL, serum-free cell culture solution
# [10] = Na alginate 5 mg/mL, serum-free cell culture solution
# [11] = Sodium alginate 0.5 mg/ml, Ringer's solution
# [12] = Sodium alginate 2.5 mg/ml, Ringer's solution
# [13] = Sodium alginate 50 mg/ml, Ringer's solution
molecule,measurement,setting,value
"N=C(N)c1ccc2cc(OC(=O)c3ccc(N=C(N)N)cc3)ccc2c1 [inhibitor b, nafamostat mesilate]",Average survival rate at 48 hours,[1],43%
dextran [reference compound],Detachment and suspension of adherent cells after replacement,[2],not detached and suspended in any of the cases
low molecular weight heparin sodium [reference compound],Effect of improving cell viability (cell protective effect),"[3]; Chinese hamster fibroblasts, same preservation experiments, values not given",the cell protective effect was observed
same,Effect of improving cell viability (cell protective effect),"[4]; rat corneal epithelial cells, same experiment as for heparin sodium, values not given",the cell protective effect was observed
sodium alginate [Na alginate],Percentages of cells of each cell cycle: G0 phase + G1 phase,[5],88.1%
same,Percentages of cells of each cell cycle: S phase + G2 phase + M phase,[5],10.1%
same,Average survival rate at 24 hours,[3]; Na alginate 0.63 mg/mL,56%
same,Average survival rate at 72 hours,[3]; Na alginate 0.63 mg/mL,73%
same,Average survival rate at 24 hours,[3]; Na alginate 1.25 mg/mL,57%
same,Average survival rate at 24 hours,[3]; Na alginate 2.5 mg/mL,60%
same,Average survival rate at 72 hours,[3]; Na alginate 2.5 mg/mL,77%
same,Average survival rate at 72 hours,[3]; Na alginate 5 mg/mL,70%
same,Average survival rate at 24 hours,[4]; [6],52%
same,Average survival rate at 72 hours,[4]; [6],68%
same,Average survival rate at 24 hours,[4]; [7],60%
same,Average survival rate at 72 hours,[4]; [7],77%
same,Average survival rate at 24 hours,"[4]; Na alginate 1.25 mg/mL, Ringer's solution",51%
same,Average survival rate at 24 hours,[4]; [8],53%
same,Average survival rate at 72 hours,[4]; [8],72%
same,Average survival rate at 24 hours,[4]; [9],70%
same,Average survival rate at 72 hours,[4]; [9],80%
same,Average survival rate at 72 hours,"[4]; Na alginate 5 mg/mL, Ringer's solution",64%
same,Average survival rate at 24 hours,[4]; [10],74%
same,Average survival rate at 72 hours,[4]; [10],70%
"sodium alginate [Sodium alginate 30 mPa · s (1% aqueous solution, 20° C.)]",Average survival rate after preservation for 24 hours,"[4]; Sodium alginate 0.2 mg/ml, Ringer's solution",50%
same,Average survival rate after preservation for 7 days,[4]; [11],51%
same,Average survival rate after preservation for 24 hours,"[4]; Sodium alginate 1 mg/ml, Ringer's solution",54%
same,Average survival rate after preservation for 7 days,[4]; [12],56%
"sodium alginate [Sodium alginate 30 mPa · s (10% aqueous solution, 20° C.)]",Average survival rate after preservation for 7 days,[4]; [12],54%
same,Average survival rate after preservation for 7 days,"[4]; Sodium alginate 10 mg/ml, Ringer's solution",69%
same,Average survival rate after preservation for 24 hours,"[4]; Sodium alginate 20 mg/ml, Ringer's solution",46%
same,Average survival rate after preservation for 24 hours,[4]; [13],50%
same,Average survival rate after preservation for 7 days,[4]; [13],72%
"sodium alginate [Sodium alginate 120 mPa · s (1% aqueous solution, 20° C.)]",Average survival rate after preservation for 24 hours,"[4]; Sodium alginate 0.1 mg/ml, Ringer's solution",62%
same,Average survival rate after preservation for 7 days,[4]; [11],53%
same,Average survival rate after preservation for 24 hours,[4]; [12],59%
same,Average survival rate after preservation for 7 days,[4]; [12],52%
"urinastatin (protein, UniProt P02760 206-352, looked up, Inter-alpha-trypsin inhibitor light chain) Inter-alpha-trypsin inhibitor …: AVLPQEEEGSGGGQLVTEVTKKEDSCQLGYSAGPCMGMTSRYFYNGTSMACETFQYGGCMGNGNNFVTEKECLQTCRTVAACNLPIVRGPCRAFIQLWAFDAVKGKCVLFPYGGCQGNGNKFYSEKECREYCGVPGDGDEELLRFSN",Average survival rate at 72 hours,"[4]; inhibitor a 5 units/mL, Ringer's solution",70%

# — patent US20240099295A1, “CELL TREATMENT AGENT” (AYA Inc., priority 2021, published 2024)
